Assay results: patent US20150164899A1, “INHIBITION OF ADAPTOR ASSOCIATED KINASE 1 FOR THE TREATMENT OF PAIN” (priority 2012, published 2015)

Legend:
[1] = target: T1, AAK1 (full length human) in transfected HEK293F cells (Homo sapiens, UniProt Q2M2I8); assay: HEK281 cell-based assay (phospho-mu2 Western blot); settings: HEK281 cell-based assay; pyrazolo[1,5-a]pyrimidine-based inhibitors; read-out: CBA IC50
T1 construct: expressed in transfected cells; host or cells: HEK293F
Description: HEK293F cells were cultured in media containing DMEM (Gibco, cat. #11965), 10% FBS (SAFC Biosciences, cat. #12103C), 1×GPS (glutamine, penicillin and streptomycin). On day one, cells were plated on a 10 cm dish so that they are ˜80% confluent at time of transfection. Roughly 12 million cells were in a 10 cm dish at time of transfection. On day two, each dish was transfected with 48 ug DNA and 144 ul Lipofectamine 2000 (Invitrogen, cat.#11668-019). The DNA was comprised of a mixture (per 10 cm dish) containing 3 ug AAK1/HA/pIRES (full length human, NCBI accession no. NP_055726.2), 45 μg Flag/AP2MI/pcDNA (full length human), and 1.5 ml OPTI-MEM. The Lipofectamine 2000 is made up of a mixture (per 10 cm dish) containing 144 μl Lipofectamine 2000 and 1.5 ml OPTI-MEM. Each mixture was transferred to individual 15 ml tubes and incubated at RT for 5 minutes, and then the two mixes were combined and incubated at RT for 20 minutes. Growth media was then aspirated from each 10 cm plate and replaced with 10 ml of DMEM+10% FBS (no GPS). Finally, 3 ml DNA/Lipofectamine mix was added to each 10 cm dish and mix gently followed by incubate of plate overnight at 37° C. and 5% CO2.
On day three, compounds were diluted in 100% DMSO at 1000× final concentration, followed by 3-fold serial dilutions for a total of 5 concentrations tested. Four compounds were tested per 10 cm dish. One ul of each compound dilution was then pipetted into a deep-well, 96-well plate, followed by addition of 500 μl DMEM+0.5% FBS into each well for a 2× final concentration of each compound. Cells were resuspended in a 10 cm dish by simple pipetting (HEK293 cells come off the plate that easy at this point) and then transferred to a 50 ml conical tube and pelleted by centrifugation at 1000 rpm for 5 min. Cell pellets were then resuspended in 2.75 ml DMEM+0.5% FBS per 10 cm dish and 100 μl of cell suspension transferred into each well of 96-well TC plate. Finally, 100 μl of 2× compound diluted in DMEM+0.5% FBS was then added into wells containing cell suspension for a 1× final concentration. Plates were then incubated at 37° C. and 5% CO2 for 3 hours followed by transferring of cell suspensions from each well into 12-tube PCR strips. The PCR strips were spun in a tip rack at 1000 rpm for 5 minutes to pellet cells and media was then removed by pipetting without disturbing the cell pellet.
To prepare for Western Blot analysis, cell pellets were resuspend in 40 ul 1×LDS-PAGE sample buffer (Invitrogen, cat.# NP0008)+2× Halt phophatase and protease inhibitor cocktail (Thermo Scientific, cat.#1861284), followed by sonicating each with microtip sonicator set at 5 for 8-10 seconds. Five ul of 10× NuPage Sample Reducing Agent (with […]) was to each sample followed by heat denaturing at 70 C. for 10 min on PCR machine. A total of 10 μl per sample was loaded into each lane of a 4-20% Tris-Glycine Criterion 26-well gel (Biorad, cat.#345-0034) for the phospho-mu2 blot and 10 μl per lane in a 4-12% Bis-Tris (+MES buffer) NuPAGE 26-well gel (Invitrogen, cat.# WG1403BX10) for the mu2 blot. For controls, 2 ng of phospho-mu2 or 20 ng mu2/Flag proteins were loaded in the last well of each gel. After SDS-PAGE, samples on each gel were transferred to PVDF membrane using an iBlot and membranes were blocked for one hour in TBST+5% milk, followed by wash 3× for 5-10 min with TBST. Criterion gels were probed with rabbit anti-phospho-mu2 (1:5000; a rabbit polyclonal antibody produced by New England Peptide and affinity purified at Lexicon) in TBST+5% BSA, whereas, NuPAGE gels were probed with mouse anti-Flag (1:500; Sigma, cat.# F1804) in TBST+5% milk, and these primary antibodies were incubated overnight at 4° C. on a rocker.

[2] = target: T2, AAK1 (full-length human protein) (Homo sapiens, UniProt Q2M2I8); assay: P81 filter plate assay; format: biochemical; settings: pyrazolo[1,5-a]pyrimidine-based inhibitors
T2 construct: NP_055726.2
Description: Compounds were serially diluted into a Labcyte LDV plate (Labcyte, cat# LP-0200) using a Mutiprobe (PerkinElmer) and Biomek FX (Beckman Coulter) so that the highest compound concentration was at 96 μM. Compounds were then pinged (75 nL per well) into a Greiner 384-well reaction plate (Greiner, #781076) using an ECHO 550 Liquid Handler (Labcyte). A total of 12 μl reaction buffer (IMAP buffer containing Tween and DTT, from Molecular Devices) was then added to each well of columns 1 and 13 for the negative controls and 12 μl of 2×AAK1 (0.2 nM full-length human protein, NCBI accession no. NP_055726.2) was added to the remaining wells. Enzyme was then pre-incubated with compound for 10 minutes at RT. Reactions were initiated upon Minitrak (PerkinElmer) addition of 12 μl substrate mix containing 2× Mu2 (0.2 μM, full length human protein), 2× cold ATP (2 μM), and 1.3 μCi of hot ^33P-ATP. Reactions proceeded for one hour at RT. Meanwhile, Millipore 384-well P81 filter plates (Millipore, catalog # MZPHN0W10) were placed on a plate washer (Zoom Z W, from Titertek) and pre-wet with 50 μl 1% phosphoric acid. Kinase reactions were then stopped upon addition of 24 μl of 2% phosphoric acid to each well and the Minitrak was then used to transfer 40 μl from each well into the pre-wet Millipore 384-well P81 filter plates. Reaction mixtures were incubated for 10 minutes at RT in the P81 plates, followed by washing five times with 100 μl/well of 1% phosphoric acid using the Zoom filter washer. The bottom of each filter plate was sealed followed by addition of 20 μl Microscint 40 to each well, sealing the top of the plates with Flashplate cover, and then waiting one hour until reading on the TopCount (PerkinElmer).

[3] = tested on: formalin-induced paw flinching; assay: formalin paw test; format: in vivo; settings: mice
Description: See example 5.4.1, above. The same test was used to confirm that the administration of an AAK1 inhibitor can also affect pain response.
Mice were tested for nociception with Automatic Nociception Analyzers (purchased from the Ozaki lab at University of California, San Diego). A metal band was placed around the left hind paw of each mouse with superglue 30 minutes prior to testing. After the 30-minute acclimation period, 20 μl of 5% formalin was subcutaneously injected in the dorsal surface of the left hind paw. Mice were individually housed in cylindrical chambers for 45 minutes. Fresh 5% formalin solution was prepared by diluting formaldehyde (Formalde-fresh 20%, Fisher Scientific, Fair Lawn, N.J.) with distilled water. Investigatory compounds were administered 30 minutes prior to formalin injection.
A computer software recorded flinches per minute, total flinches for Phase I (acute phase=first 8 minutes), and total flinches for Phase II (tonic phase between 20-40 minutes) through an electromagnetic field. See Yaksh T L, Ozaki G, McCumber D, Rathbun M, Svensson C, Malkmus S, Yaksh M C. An automated flinch detecting system for use in the formalin nociceptive bioassay. J Appl Physiol., 2001; 90:2386-402.
Various compounds of the invention were tested at different doses. Gabapentin and pregabalin were used as positive controls. Results are shown below in Table 2, wherein “*” means an effect equal to or greater than 50 percent of that of gabapentin at 200 mpk, “**” means an effect equal to or greater than 100 percent of that of gabapentin at 200 mpk, “sc” means subcutaneous administration, “ip” means in intraperitoneal administration, and “po” means oral administration.

T1 sequence (Q2M2I8 1-863 isoform Q2M2I8-2): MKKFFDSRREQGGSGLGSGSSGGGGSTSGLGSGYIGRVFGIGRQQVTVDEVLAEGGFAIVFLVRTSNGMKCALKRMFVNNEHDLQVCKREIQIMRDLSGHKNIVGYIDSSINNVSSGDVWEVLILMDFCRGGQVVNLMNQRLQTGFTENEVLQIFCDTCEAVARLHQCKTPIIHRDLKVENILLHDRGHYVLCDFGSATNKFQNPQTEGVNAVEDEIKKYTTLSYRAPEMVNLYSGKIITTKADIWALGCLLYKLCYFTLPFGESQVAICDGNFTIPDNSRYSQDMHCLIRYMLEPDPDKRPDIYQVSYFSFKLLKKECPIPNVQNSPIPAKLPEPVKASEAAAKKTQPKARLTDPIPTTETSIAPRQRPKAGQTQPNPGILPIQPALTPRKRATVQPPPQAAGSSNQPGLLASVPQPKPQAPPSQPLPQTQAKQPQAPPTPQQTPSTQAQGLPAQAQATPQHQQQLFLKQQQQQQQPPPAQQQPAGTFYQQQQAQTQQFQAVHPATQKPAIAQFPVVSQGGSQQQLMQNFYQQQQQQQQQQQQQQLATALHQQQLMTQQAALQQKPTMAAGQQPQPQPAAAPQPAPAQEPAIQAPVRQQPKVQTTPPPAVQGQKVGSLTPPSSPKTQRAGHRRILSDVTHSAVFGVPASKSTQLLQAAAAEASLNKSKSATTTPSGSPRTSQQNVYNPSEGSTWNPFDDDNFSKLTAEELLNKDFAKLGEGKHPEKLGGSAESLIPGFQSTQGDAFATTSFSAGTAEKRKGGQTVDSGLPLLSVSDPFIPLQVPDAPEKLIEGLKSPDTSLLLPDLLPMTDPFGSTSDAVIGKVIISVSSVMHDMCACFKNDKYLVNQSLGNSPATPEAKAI
T2 sequence (Q2M2I8 1-863 isoform Q2M2I8-2): as above

| Compound | IC50 [1] [nM] | IC50 [2] [nM] | other results |
| --- | --- | --- | --- |
| COc1ncccc1-c1cnn2ccc(N3CCN(C(=O)NC(C)(C)C)CC3)nc12 | ≤ 100 | ≤ 10 | – |
| COc1ncccc1-c1cnn2ccc(N3CCN(C(=O)N(C)C(C)(C)C)CC3)nc12 | ≤ 100 | ≤ 10 | – |
| COc1ncccc1-c1cnn2ccc(N3CCN(C(=O)N(C)C(C)C)CC3)nc12 | ≤ 100 | ≤ 10 | – |
| COc1ncccc1-c1cnn2ccc(N3CCN(C(=O)NC(C)C)CC3)nc12 | ≤ 10 | ≤ 10 | – |
| COc1ncccc1-c1cnn2ccc(N3CCN(C(=O)N4CCCC4)CC3)nc12 | ≤ 100 | ≤ 10 | – |
| COc1ccccc1-c1cnn2ccc(NC[C@@H]3CCCN3C(=O)CC(C)(C)C)nc12 | ≤ 10 | ≤ 10 | – |
| CCCC(=O)N1CCC[C@H]1CNc1ccn2ncc(-c3ccccc3OC)c2n1 | ≤ 100 | ≤ 10 | – |
| CC(C)(C)NC(=O)N1CCC[C@H]1CNc1ccn2ncc(Br)c2n1 | ≤ 10 | ≤ 10 | – |
| COc1ccccc1-c1cnn2ccc(NC[C@@H]3CCCN3C(=O)CC(F)(F)F)nc12 | ≤ 100 | ≤ 10 | – |
| O=C(CC(F)(F)F)N1CCC[C@H]1CNc1ccn2ncc(-c3ccncc3)c2n1 | ≤ 100 | ≤ 10 | – |
| COc1ncccc1-c1cnn2ccc(N3CC[C@H](N(C)C(=O)CC(F)(F)F)C3)nc12 | ≤ 10 | ≤ 10 | – |
| CN(C(=O)CC(F)(F)F)[C@H]1CCN(c2ccn3ncc(-c4ccccn4)c3n2)C1 | ≤ 10 | ≤ 10 | – |
| CC(C)(C)CCN1C(=O)CC[C@H]1CNc1ccn2ncc(Br)c2n1 | ≤ 100 | ≤ 10 | – |
| CCCC(=O)N(C)[C@H]1CCN(c2ccn3ncc(-c4ccccc4OC)c3n2)C1 | ≤ 1000 | ≤ 10 | – |
| CCCC(=O)N(C)[C@H]1CCN(c2ccn3ncc(-c4cccnc4OC)c3n2)C1 | ≤ 1000 | ≤ 10 | – |
| COc1ccccc1-c1cnn2ccc(NC[C@@H]3CCCN3C(=O)OC(C)C)nc12 | ≤ 10 | ≤ 10 | – |
| COC(=O)N1CCC[C@H]1CNc1ccn2ncc(-c3ccccc3OC)c2n1 | ≤ 100 | ≤ 10 | – |
| COCc1ccccc1-c1cnn2ccc(NC[C@@H]3CCCN3C(=O)OC(C)(C)C)nc12 | ≤ 100 | ≤ 10 | – |
| CC(C)(C)OC(=O)N1CCC[C@H]1CNc1ccn2ncc(-c3ccccc3O)c2n1 | ≤ 100 | ≤ 10 | – |
| CC(C)Oc1ccccc1-c1cnn2ccc(NC[C@@H]3CCCN3C(=O)OC(C)(C)C)nc12 | ≤ 10 | ≤ 10 | – |
| COc1ccc(-c2cnn3ccc(NC[C@@H]4CCCN4C(=O)OC(C)(C)C)nc23)cc1 | ≤ 10 | ≤ 10 | – |
| COc1ccccc1-c1cnn2ccc(N3CC[C@H](N(C)C(=O)OC(C)(C)C)C3)nc12 | ≤ 100 | ≤ 10 | – |
| CC(C)OC(=O)N1CCN(c2ccn3ncc(-c4ccncc4)c3n2)CC1 | ≤ 100 | ≤ 10 | – |
| COC(=O)N1CCN(c2ccn3ncc(-c4cccnc4OC)c3n2)CC1 | ≤ 100 | ≤ 100 | – |
| CCCCNc1ccc2ncc(-c3ccc(-c4nnn[nH]4)cc3)n2n1 [3-(4-(1H-tetrazol-5-yl)phenyl)-N-butylimidazo[1,2-b]pyridazin-6-amine] | – | – | Effect ([3]; 60 mpk ip): ** (an effect equal to or greater than 100% of that of gabapentin at 200 mpk) |
| NCc1ccc(-c2cnc3ccc(NCCOC4CCCC4)nn23)cc1 [3-(4-(aminomethyl)phenyl)-N-(2-(cyclopentyloxy)ethyl)imidazo[1,2-b]pyridazin-6-amine] | – | – | Effect ([3]; 60 mpk sc): ** (an effect equal to or greater than 100% of that of gabapentin at 200 mpk); Effect ([3]; 100 mpk sc): ** (an effect equal to or greater than 100% of that of gabapentin at 200 mpk) |
| CC(C)(C)OCCNc1ccc2ncc(-c3ccc(CN)cc3)n2n1 [3-(4-(aminomethyl)phenyl)-N-(2-(tert-butoxy)ethyl)imidazo[1,2-b]pyridazin-6-amine] | – | – | Effect ([3]; 60 mpk sc): ** (an effect equal to or greater than 100% of that of gabapentin at 200 mpk) |
| CC(C)(C)OCCCNc1ccc2ncc(-c3ccc(CN)cc3)n2n1 [3-(4-(aminomethyl)phenyl)-N-(3-(tert-butoxy)propyl)imidazo[1,2-b]pyridazin-6-amine] | – | – | Effect ([3]; 60 mpk sc): ** (an effect equal to or greater than 100% of that of gabapentin at 200 mpk) |
| NCc1ccc(-c2cnc3ccc(NCCCc4ccccc4)nn23)cc1 [3-(4-(aminomethyl)phenyl)-N-(3-phenylpropyl)imidazo[1,2-b]pyridazin-6-amine] | – | – | Effect ([3]; 30 mpk ip): ** (an effect equal to or greater than 100% of that of gabapentin at 200 mpk) |
| CC(C)C[C@@H](N)COc1ccc2c(c1)OCc1cnccc1-2 [(R)-1-(5H-chromeno[3,4-c]pyridin-8-yloxy)-4-methylpentan-2-amine] | – | – | Effect ([3]; 10 mpk sc, given as a number, relative to gabapentin at 200 mpk): 45%; Effect ([3]; 30 mpk sc): * (an effect equal to or greater than 50% of that of gabapentin at 200 mpk) |
